According to patent publication US11213590B2, “SSTR-targeted conjugates and particles and formulations thereof” (priority 2016, dated 2022):

Experiments:
HCC-33 = experiment: Inhibition of proliferation, CellTiter-Glo, HCC-33; type: cell-based, human
Procedure: The purpose of this study was to determine the receptor-dependent inhibition of proliferation in vitro by the somatostatin targeting conjugate Conjugate 57 and determine the sensitivity to DM1 in the human SSTR2 expressing cancer cell lines: NCI-H69, NCI-H82, NCI-H727 and HCC-33. Cells were incubated with Conjugate 57 for 6 hours, in the presence or absence of an excess of octreotide, a somatostatin analogue. A three-fold serial dilution of Conjugate 57 was used for a total of ten concentration points. After treatment, cells were washed, incubated for an additional period of time, either 72 or 96 hours and proliferation was measured using the CellTiter-Glo® Luminescent Cell Viability Assay. The IC50 of Conjugate 57 was used to determine the inhibiting activity in proliferation assays. To determine DM1 sensitivity a similar method to the Conjugate 57 assay was employed with the additional incubation time points of 30 minutes, 1, 2, and 4 hours and the exclusion of the pre-treatment with octreotide. DM1 effect from the most to least sensitive cell line was determined to be: NCI-H69>HCC-33>NCI-H82>NCI-H727 (Table 5B). […] The addition of excess octreotide (100 μM) competes with Conjugate 57 for binding to the SSTR2 receptor. […] In the NCI-H69 experiments, pre-incubation with an excess of octreotide modestly diminished the activity of Conjugate 57 by 1.6 and 2.4 fold, depending on the assay conditions. In the HCC-33 cell line, activity of Conjugate 57 was 3.2 (±1.4) times higher when dosed alone, compared to when the cells were pre-incubated with octreotide. The small but measureable changes in Conjugate 57 activity in the presence of excess octreotide seen in the NCI-H69 and HCC-33 cell lines supports the receptor dependence of the Conjugate 57 antiproliferative effect seen in vitro. In summary, although all the cell lines tested in these experiments express the SSTR2 protein, they have different levels of sensitivity to the Conjugate 57 conjugate of which the DM1 sensitivity may be a contributing factor.

[1] = system: HCC-33 (small cell lung cancer) xenograft; experiment: HCC-33 xenograft efficacy; type: in vivo
Procedure: HCC-33 (small cell lung cancer) xenograft was chosen to study efficacy of Conjugate 57. In some groups, Conjugate 57 was given at 1.0 mg/kg, 0.5 mg/kg or 0.33 mg/kg every week for 30 days, a total of four doses for each animal. In some other groups, Conjugate 57 was also given at 0.5 mg/kg or 0.25 mg/kg twice a week for 30 days, a total of 8 total doses for each animal.

hERG = hERG (Homo sapiens, UniProt Q12809); experiment: hERG ion channel inhibition, IonWorks Quattro patch clamp; type: cell-based; settings: human; all concentrations tested (0.005 μM to 10 μM); 600 seconds incubation
Procedure: (§1) The purpose of this study was to evaluate the potential of Conjugate 57 to prolong the QT interval via modulation of the ion channel, human Ether-á-go-go Related Gene (hERG). The potential inhibition of the ion channel activity by Conjugate 57 was tested using an IonWorks Quattro electrophysiological platform, which is an automated high-throughput patch clamp system. Conjugate 57 was tested at eight different concentrations, starting at a high concentration of 10 μM and a low concentration of 0.005 μM with a minimum of five replicates for each concentration. hERG currents were evoked by a three pulse protocol where voltage was first stepped to +40 mV for two seconds from a holding potential of −80 mV to inactivate hERG channels. The voltage is then stepped back to −50 mV for two seconds to evoke a tail current prior to returning to the holding potential for 1 second. The voltage protocol was applied (Pre), compounds added, incubated for 600 seconds, and the voltage protocol was applied a final time (Post) on the IonWorks Quattro.

[2] = molecular target: human Ether-á-go-go-Related Gene (hERG) ion channel (Homo sapiens, UniProt Q12809); experiment: as above; type: cell-based; settings: IonWorks Quattro; up to 10 μM
Procedure: as §1

[3] = Pharmacokinetics in patients; type: in vivo; settings: human, venous blood, intravenous; in a patient
Procedure: For C1D1 and C3D1, venous blood samples (4-6 ml) for determination of Conjugate 57, the somatostatin analog peptide component of Conjugate 57 (BT-979), and DM1 (total, unconjugated, and free sulfhydryl) are taken before the start of the infusion, at 0.5 hours (±1 minute) after the start of study drug infusion; precisely at the end of infusion; and 1.5 hours (±5 minutes), 2 hours (±5 minutes), 4 hours (±5 minutes), 6 hours (±5 minutes), 8 hours (±5 minutes), and 10 hours (±5 minutes) after the start of study drug infusion. If the 10 hour time point requires an inpatient admission at the center, the 10 hour time point is not collected. The date and time of collection of each sample are recorded.

Chain of human Ether-á-go-go-Related Gene (hERG) ion channel (Q12809 whole entry): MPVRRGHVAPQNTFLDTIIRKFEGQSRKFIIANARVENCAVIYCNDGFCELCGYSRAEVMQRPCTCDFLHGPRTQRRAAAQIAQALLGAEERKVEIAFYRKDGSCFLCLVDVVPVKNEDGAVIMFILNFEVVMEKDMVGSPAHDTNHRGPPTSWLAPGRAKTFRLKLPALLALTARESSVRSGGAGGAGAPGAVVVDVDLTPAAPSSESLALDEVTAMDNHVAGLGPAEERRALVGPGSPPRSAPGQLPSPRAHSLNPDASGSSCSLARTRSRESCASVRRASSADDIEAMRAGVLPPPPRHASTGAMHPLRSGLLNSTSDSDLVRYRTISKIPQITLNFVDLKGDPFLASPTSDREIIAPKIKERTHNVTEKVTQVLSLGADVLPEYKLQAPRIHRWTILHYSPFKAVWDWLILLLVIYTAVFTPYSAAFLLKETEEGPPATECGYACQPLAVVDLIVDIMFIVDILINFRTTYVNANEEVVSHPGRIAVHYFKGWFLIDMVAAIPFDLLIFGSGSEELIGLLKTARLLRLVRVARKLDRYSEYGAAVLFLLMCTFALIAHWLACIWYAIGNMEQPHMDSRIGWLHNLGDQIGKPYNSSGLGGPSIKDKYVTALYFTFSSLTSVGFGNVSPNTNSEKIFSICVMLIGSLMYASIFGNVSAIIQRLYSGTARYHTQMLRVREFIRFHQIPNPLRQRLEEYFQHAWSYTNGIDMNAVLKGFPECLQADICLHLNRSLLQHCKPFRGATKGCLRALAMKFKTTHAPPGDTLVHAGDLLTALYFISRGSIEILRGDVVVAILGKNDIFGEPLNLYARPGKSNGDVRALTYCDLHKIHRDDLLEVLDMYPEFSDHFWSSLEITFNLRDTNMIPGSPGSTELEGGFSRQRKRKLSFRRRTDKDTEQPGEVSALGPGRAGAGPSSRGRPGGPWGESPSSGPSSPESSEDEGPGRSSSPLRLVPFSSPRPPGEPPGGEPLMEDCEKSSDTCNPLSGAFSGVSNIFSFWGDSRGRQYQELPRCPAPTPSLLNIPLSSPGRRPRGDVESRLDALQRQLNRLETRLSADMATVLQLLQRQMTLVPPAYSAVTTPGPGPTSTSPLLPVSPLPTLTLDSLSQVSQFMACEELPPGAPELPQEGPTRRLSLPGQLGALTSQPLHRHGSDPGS
Chain of hERG (Q12809 whole entry): as above

COc1cc2cc(c1Cl)N(C)C(=O)C[C@H](OC(=O)[C@H](C)N(C)C(=O)CCSSC[C@H](NC(=O)[C@@H]1CSSC[C@H](NC(=O)[C@H](N)Cc3ccccc3)C(=O)N[C@@H](Cc3ccc(O)cc3)C(=O)N[C@H](Cc3c[nH]c4ccccc34)C(=O)N[C@@H](CCCCN)C(=O)N[C@@H]([C@@H](C)O)C(=O)N1)C(N)=O)[C@]1(C)O[C@H]1[C@H](C)[C@@H]1C[C@@](O)(NC(=O)O1)[C@H](OC)/C=C/C=C(\C)C2 [Conjugate 57]
activity dosed alone compared to pre-incubation with octreotide (HCC-33): 3.2 (±1.4) times higher | IC50 (HCC-33; 5,000 cells/well, assay duration 72 h (repeat experiments), read-out: Inhibition of Proliferation IC50 Without Octreotide): 230 nM | TGI % ([1]; 0.25 mg/kg 2x/wk (8 doses), Day 4): −12.5% | TGI % ([1]; 0.25 mg/kg 2x/wk (8 doses), Day 8): 50.4% | TGI % ([1]; 0.25 mg/kg 2x/wk (8 doses), Day 11): 67.3% | TGI % ([1]; 0.25 mg/kg 2x/wk (8 doses), Day 15): 85.8% | TGI % ([1]; 0.25 mg/kg 2x/wk (8 doses), Day 18): 92.3% | TGI % ([1]; 0.25 mg/kg 2x/wk (8 doses), Day 22): 95.8% | TGI % ([1]; 0.25 mg/kg 2x/wk (8 doses), Day 25): 97.2% | TGI % ([1]; 0.25 mg/kg 2x/wk (8 doses), Day 29): 97.8% | TGI % ([1]; 0.33 mg/kg every week (4 doses), Day 4): 2.1% | TGI % ([1]; 0.33 mg/kg every week (4 doses), Day 8): 34.2% | TGI % ([1]; 0.33 mg/kg every week (4 doses), Day 11): 48% | TGI % ([1]; 0.33 mg/kg every week (4 doses), Day 15): 62.4% | TGI % ([1]; 0.33 mg/kg every week (4 doses), Day 18): 73.8% | TGI % ([1]; 0.33 mg/kg every week (4 doses), Day 22): 79% | TGI % ([1]; 0.33 mg/kg every week (4 doses), Day 25): 83.4% | TGI % ([1]; 0.33 mg/kg every week (4 doses), Day 29): 78.5% | TGI % ([1]; 0.5 mg/kg 2x/wk (8 doses), Day 4): 0.5% | TGI % ([1]; 0.5 mg/kg 2x/wk (8 doses), Day 8): 61.6% | TGI % ([1]; 0.5 mg/kg 2x/wk (8 doses), Day 11): 78.3% | TGI % ([1]; 0.5 mg/kg 2x/wk (8 doses), Day 15): 91.8% | TGI % ([1]; 0.5 mg/kg 2x/wk (8 doses), Day 18): 96.2% | TGI % ([1]; 0.5 mg/kg 2x/wk (8 doses), Day 22): 97.6% | TGI % ([1]; 0.5 mg/kg 2x/wk (8 doses), Day 25): 99.1% | TGI % ([1]; 0.5 mg/kg 2x/wk (8 doses), Day 29): 99.2% | TGI % ([1]; 0.5 mg/kg every week (4 doses), Day 4): 1.6% | TGI % ([1]; 0.5 mg/kg every week (4 doses), Day 8): 60.3% | TGI % ([1]; 0.5 mg/kg every week (4 doses), Day 11): 68.8% | TGI % ([1]; 0.5 mg/kg every week (4 doses), Day 15): 82.7% | TGI % ([1]; 0.5 mg/kg every week (4 doses), Day 18): 87.1% | TGI % ([1]; 0.5 mg/kg every week (4 doses), Day 22): 91.1% | TGI % ([1]; 0.5 mg/kg every week (4 doses), Day 25): 93.6% | TGI % ([1]; 0.5 mg/kg every week (4 doses), Day 29): 89.5% | TGI % ([1]; 1.0 mg/kg every week (4 doses), Day 4): 25.8% | TGI % ([1]; 1.0 mg/kg every week (4 doses), Day 8): 69.9% | TGI % ([1]; 1.0 mg/kg every week (4 doses), Day 11): 84.4% | TGI % ([1]; 1.0 mg/kg every week (4 doses), Day 15): 93.6% | TGI % ([1]; 1.0 mg/kg every week (4 doses), Day 18): 97.4% | TGI % ([1]; 1.0 mg/kg every week (4 doses), Day 22): 99.2% | TGI % ([1]; 1.0 mg/kg every week (4 doses), Day 25): 99.8% | TGI % ([1]; 1.0 mg/kg every week (4 doses), Day 29): 99.7% | Body weights ([1]; HCC-33 xenograft, all groups): good | tolerability of multiple doses ([1]; HCC-33 xenograft, weekly or twice weekly dosing for 30 days): well tolerated | inhibition at 600 seconds (hERG): < 20% | hERG ion channel inhibition (in words) [2]: did not inhibit | half-life [3]: ~1.8 h
